pKi: −log10 of the molar value. Read-outs that look alike come from different tables or passages of the source.
How the values were obtained:
[1] = target: human recombinant dopamine D3 receptor (Homo sapiens (Human), UniProt P35462); test: Test of binding inhibition for dopamine D3 receptor ([3H]-Methylspiperone SPA); conditions: Jump-In HEK cell membranes, 2 nM [3H]-Methylspiperone, 120 min at 25° C.; read-out: hD3_Ki
Procedure, shortened: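 SPA radioligand binding on Jump-In HEK membranes expressing human D3 receptor (4 µg/well) with 2 nM [3H]-methylspiperone (final), incubated 120 min at 25 °C. Non-specific binding defined with 10 µM butaclamol. Percent inhibition computed against total and non-specific binding; Ki from dose-response curves.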

[2] = target: human recombinant dopamine D2 receptor (Homo sapiens (Human), UniProt P14416); test: Test of binding inhibition for dopamine D2 receptor ([3H]-Methylspiperone SPA); conditions: Jump-In HEK cell membranes, read-out: hD2_Ki
Procedure, shortened: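 Incubation was 120 min at 25° C. with human recombinant D2 membranes from Jump-In HEK cells (2 μg/well), WGA SPA beads (0.2 mg/well) and [3H]-Methylspiperone as radioligand.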

[3] = target: human ether-a-go-go related gene (hERG) channel (Homo sapiens (Human), UniProt Q12809); test: hERG test (whole cell patch clamp, IKr); assay type: cell-based; conditions: 3 μM, CHO cells expressing hERG, tail peak current
hERG channel (IKr) = hERG channel (IKr) (Homo sapiens (Human), UniProt Q12809); test: hERG test (whole cell patch clamp, IKr); assay type: cell-based; conditions: human, CHO cells expressing hERG channel, pH 7.4, 3 μM, tail peak current
[4] = target: human MDR1-expressing cells (Homo sapiens (Human), UniProt P08183); test: P-gp substrate test (Transwell, MDR1-expressing cells vs parent cells); assay type: in vitro ADME; conditions: efflux ratio of MDR1-expressing cells compared with parent cells
Experimental: Test Example 14: P-Gp Substrate Test The compound of the present invention was added to one side of Transwell (registered trademark, CORNING) where human MDR1-expressing cells or parent cells have been monolayer-cultured. The cells were reacted for a constant time. The membrane permeability coefficients from the apical side toward the basolateral side (A→B) and from the basolateral side toward the apical side (B→A) were calculated for the MDR1-expressing cells or the parent cells, and the efflux ratio (ER; ratio of the membrane permeability coefficients of B→A and A→B) values of the MDR1-expressing cells and the parent cells were calculated. The efflux ratio (ER values) of the MDR1-expressing cells and the parent cells were compared to confirm whether or not the compound of the present invention would be a P-gp substrate.

[5] = Solubility test (1% DMSO addition, JP-1 fluid or JP-2 fluid); assay type: physicochemical; conditions: 25 °C, kinetic from dmso stock
Experimental: Test Example 11: Solubility Test The solubility of the compound of the present invention was determined under 1% DMSO addition conditions. A 10 mmol/L solution of the compound was prepared with DMSO. 2 μL of the solution of the compound of the present invention was respectively added to 198 μL of JP-1 fluid or JP-2 fluid, or 6 μL of the solution of the compound of the present invention was respectively added to 594 μL of JP-1 fluid or JP-2 fluid. The mixture was left standing for 16 hours at 25° C. (condition 1) or shaking at room temperature for 3 hours (condition 2), and the mixture was vacuum-filtered. The filtrates were diluted 10- or 100-fold with methanol/water=1/[…]) or acetonitrile/methanol/water=1/1/[…]/V), and concentrations in the filtrates were measured by the absolute calibration curve method using LC/MS or solid-phase extraction (SPE)/MS. The dilution rate or dilution solvent was changed as necessary. The composition of the JP-1 fluid was as below. Water was added to 2.0 g of sodium chloride and 7.0 mL of hydrochloric acid to reach 1000 mL. The composition of the JP-2 fluid was as below. Composition 1. 3.40 g of potassium dihydrogen phosphate and 3.55 g of anhydrous disodium hydrogen phosphate were dissolved in water to reach 1000 mL. Composition 2. 1 volume of water was added to 1 volume of the solution in which 3.40 g of potassium dihydrogen phosphate and 3.55 g of anhydrous disodium hydrogen phosphate were dissolved in water to reach 1000 mL.

[6] = 1.2 nM [3H]-Methylspiperone, 120 min at 25° C.
[7] = pH 1.2, simulated gastric fluid, JP-1 fluid, read-out: Solubility JP-1
[8] = pH 6.8, aqueous buffer, JP-2 fluid, read-out: Solubility JP-2

Sequence of human recombinant dopamine D3 receptor (P35462 whole entry): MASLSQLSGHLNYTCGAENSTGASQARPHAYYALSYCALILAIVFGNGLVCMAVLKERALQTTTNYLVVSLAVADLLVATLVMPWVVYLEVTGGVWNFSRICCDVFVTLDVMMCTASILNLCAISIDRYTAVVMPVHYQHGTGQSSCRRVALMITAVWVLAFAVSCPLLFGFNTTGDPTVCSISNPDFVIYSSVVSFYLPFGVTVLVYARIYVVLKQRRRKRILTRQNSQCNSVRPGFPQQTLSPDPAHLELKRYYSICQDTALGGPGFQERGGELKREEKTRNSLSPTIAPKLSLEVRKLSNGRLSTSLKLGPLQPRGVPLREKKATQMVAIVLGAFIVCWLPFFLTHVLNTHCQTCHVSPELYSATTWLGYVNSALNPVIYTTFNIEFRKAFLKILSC
Sequence of hERG channel (IKr) (Q12809 whole entry): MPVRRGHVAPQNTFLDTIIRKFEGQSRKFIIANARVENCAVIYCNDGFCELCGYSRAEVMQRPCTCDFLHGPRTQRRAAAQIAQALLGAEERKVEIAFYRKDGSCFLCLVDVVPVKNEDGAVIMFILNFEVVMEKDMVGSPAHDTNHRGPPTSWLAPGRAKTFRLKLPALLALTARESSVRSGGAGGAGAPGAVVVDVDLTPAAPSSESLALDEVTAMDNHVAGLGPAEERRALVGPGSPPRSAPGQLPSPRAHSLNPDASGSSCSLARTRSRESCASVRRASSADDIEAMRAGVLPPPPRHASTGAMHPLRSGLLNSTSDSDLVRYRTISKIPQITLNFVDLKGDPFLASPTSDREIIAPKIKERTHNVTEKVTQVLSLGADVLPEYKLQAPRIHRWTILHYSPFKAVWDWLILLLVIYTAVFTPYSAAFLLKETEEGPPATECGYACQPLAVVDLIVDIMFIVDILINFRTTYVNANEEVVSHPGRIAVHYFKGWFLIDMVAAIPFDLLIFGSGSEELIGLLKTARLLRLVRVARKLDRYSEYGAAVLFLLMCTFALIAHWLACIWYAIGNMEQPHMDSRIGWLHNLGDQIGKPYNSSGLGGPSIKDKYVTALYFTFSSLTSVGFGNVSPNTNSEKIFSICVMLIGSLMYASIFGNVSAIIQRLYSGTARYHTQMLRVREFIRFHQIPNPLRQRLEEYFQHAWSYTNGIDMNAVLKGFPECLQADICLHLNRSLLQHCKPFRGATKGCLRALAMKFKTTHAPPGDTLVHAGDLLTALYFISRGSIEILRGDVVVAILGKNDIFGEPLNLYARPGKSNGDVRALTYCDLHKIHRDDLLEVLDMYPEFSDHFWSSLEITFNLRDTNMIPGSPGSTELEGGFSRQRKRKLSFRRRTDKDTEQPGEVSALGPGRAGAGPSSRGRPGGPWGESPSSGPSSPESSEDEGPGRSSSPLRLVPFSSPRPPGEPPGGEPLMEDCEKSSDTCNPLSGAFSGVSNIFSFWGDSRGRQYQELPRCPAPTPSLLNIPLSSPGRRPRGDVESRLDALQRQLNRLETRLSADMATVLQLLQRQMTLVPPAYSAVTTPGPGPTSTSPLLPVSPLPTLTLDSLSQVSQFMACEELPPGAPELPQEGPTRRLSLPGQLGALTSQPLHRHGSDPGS
Sequence of human MDR1-expressing cells (P08183 whole entry): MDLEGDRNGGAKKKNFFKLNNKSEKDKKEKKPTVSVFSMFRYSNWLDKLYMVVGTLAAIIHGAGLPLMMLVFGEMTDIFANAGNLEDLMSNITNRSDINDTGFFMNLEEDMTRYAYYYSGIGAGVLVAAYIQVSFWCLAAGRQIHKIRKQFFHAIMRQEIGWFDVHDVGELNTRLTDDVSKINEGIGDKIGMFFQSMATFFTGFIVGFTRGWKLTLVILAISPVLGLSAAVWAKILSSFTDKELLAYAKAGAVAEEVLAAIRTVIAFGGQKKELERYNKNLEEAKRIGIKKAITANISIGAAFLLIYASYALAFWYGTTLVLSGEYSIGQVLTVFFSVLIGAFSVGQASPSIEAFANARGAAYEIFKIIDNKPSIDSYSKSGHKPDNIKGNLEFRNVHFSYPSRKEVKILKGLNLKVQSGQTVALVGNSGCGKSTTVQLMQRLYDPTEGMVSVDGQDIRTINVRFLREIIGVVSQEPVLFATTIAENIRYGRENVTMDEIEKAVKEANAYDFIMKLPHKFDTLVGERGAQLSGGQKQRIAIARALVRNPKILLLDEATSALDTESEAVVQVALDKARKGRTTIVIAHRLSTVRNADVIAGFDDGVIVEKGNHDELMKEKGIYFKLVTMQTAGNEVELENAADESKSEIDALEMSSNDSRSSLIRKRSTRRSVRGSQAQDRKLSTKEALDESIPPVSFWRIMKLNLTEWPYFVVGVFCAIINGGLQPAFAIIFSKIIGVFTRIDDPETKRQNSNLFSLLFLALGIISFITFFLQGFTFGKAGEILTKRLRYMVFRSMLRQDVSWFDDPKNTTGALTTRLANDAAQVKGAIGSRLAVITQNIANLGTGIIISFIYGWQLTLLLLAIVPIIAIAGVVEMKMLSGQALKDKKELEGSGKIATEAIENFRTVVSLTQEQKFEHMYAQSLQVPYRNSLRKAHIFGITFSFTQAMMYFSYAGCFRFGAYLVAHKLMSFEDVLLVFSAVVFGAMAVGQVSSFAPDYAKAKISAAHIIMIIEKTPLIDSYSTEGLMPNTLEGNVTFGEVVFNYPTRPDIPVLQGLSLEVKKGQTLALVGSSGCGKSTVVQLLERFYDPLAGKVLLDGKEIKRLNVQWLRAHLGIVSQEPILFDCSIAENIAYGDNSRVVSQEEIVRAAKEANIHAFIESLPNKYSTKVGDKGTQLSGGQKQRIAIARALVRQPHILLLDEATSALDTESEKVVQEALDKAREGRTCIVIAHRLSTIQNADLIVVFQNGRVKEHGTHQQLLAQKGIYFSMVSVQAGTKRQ
Sequence of human recombinant dopamine D2 receptor (P14416 whole entry): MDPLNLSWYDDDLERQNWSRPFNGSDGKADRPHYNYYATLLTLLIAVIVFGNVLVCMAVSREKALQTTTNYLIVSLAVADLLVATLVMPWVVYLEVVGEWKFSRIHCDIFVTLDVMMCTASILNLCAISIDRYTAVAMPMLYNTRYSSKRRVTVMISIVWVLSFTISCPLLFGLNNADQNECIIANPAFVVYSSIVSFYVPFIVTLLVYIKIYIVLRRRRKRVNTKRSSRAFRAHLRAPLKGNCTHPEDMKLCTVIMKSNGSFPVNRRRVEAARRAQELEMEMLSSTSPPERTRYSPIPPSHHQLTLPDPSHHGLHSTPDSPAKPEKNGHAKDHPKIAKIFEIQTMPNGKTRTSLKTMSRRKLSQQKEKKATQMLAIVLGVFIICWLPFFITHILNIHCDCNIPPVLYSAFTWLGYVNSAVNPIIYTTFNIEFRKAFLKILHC
Sequence of human ether-a-go-go related gene (hERG) channel (Q12809 whole entry): as the sequence (Q12809 whole entry) above

SMILES: CC(Oc1nc2c(s1)CCN(CC[C@H]1CC[C@H](NC(=O)c3cccc4nn(C)cc34)CC1)CC2)C(F)F (single isomer, unassigned) [Example I-119]
- pKi [1]: 9.96
- pKi [2, 6]: 5.92
- hERG inhibition(%) at 3 μM [3]: 23.1%

SMILES: Cn1ncc(CC(=O)N[C@H]2CC[C@H](CCN3CCc4sc(OCC(C)(F)F)nc4C3)CC2)n1 [Example I-005]
- pKi [1]: 9.20
- pKi [2, 6]: 6.14
- inhibition at 3 µM (hERG channel (IKr)): 15.3%
- P-gp ER ratio [4]: 1.5

SMILES: Cn1ncc(CC(=O)N[C@H]2CC[C@](F)(CCN3CCc4ccc(OCC(F)F)nc4CC3)CC2)n1 [Example I-031]
- pKi [1]: 9.72
- pKi [2, 6]: 6.10
- inhibition at 3 µM (hERG channel (IKr)): 23.8%
- P-gp ER ratio [4]: 1.5

SMILES: Cn1cc2c(C(=O)NC34CCC(CCN5CCc6nc(OCC(F)(F)F)sc6CC5)(CC3)OC4)cccc2n1 [II-11]
- pKi [1]: 9.64
- pKi ([2]; [3H]-Methylspiperone 1.2 nM): < 5.64
- solubility [5, 7]: > 50 µM
- solubility [5, 8]: > 50 µM

SMILES: Cc1ncc(OCC(=O)NC23CCC(CCN4CCc5nc(OCC(F)(F)F)sc5CC4)(CC2)OC3)cn1 [II-12]
- pKi [1]: 9.31
- pKi ([2]; [3H]-Methylspiperone 1.2 nM): 5.82
- solubility [5, 7]: > 50 µM
- solubility [5, 8]: > 50 µM

SMILES: Cn1ncc(CC(=O)N[C@H]2CC[C@](F)(CCN3CCc4nc(OCC(C)(F)F)sc4CC3)CC2)n1 [I′-39]
- pKi [1]: 9.31
- pKi ([2]; [3H]-Methylspiperone 1.2 nM): 6.02
- inhibition at 3 µM (hERG channel (IKr)): 17.3%
- P-gp ER ratio [4]: 1.9
